# Reference: US6992079B2, “Substituted 11-phenyl-dibenzazepine compounds useful for the treatment or prevention of diseases characterized by abnormal cell proliferation” (President Fellows of Harvard College, priority 1997, dated 2006)
# Read-outs that look alike come from different tables or passages of the source.
# Assays:
# [1] = system: M14; experiment: In-Vitro Testing SRB panel: Melanoma; type: cell-based
# [2] = system: UACC-257; experiment: In-Vitro Testing SRB panel: Melanoma; type: cell-based
# [3] = system: SF-268; experiment: In-Vitro Testing SRB panel: CNS Cancer; type: cell-based
# [4] = system: SK-MEL-2B; experiment: In-Vitro Testing SRB panel: Melanoma; type: cell-based
# [5] = system: A498; experiment: In-Vitro Testing SRB panel: Renal Cancer; type: cell-based
# [6] = system: DU-145; experiment: In-Vitro Testing SRB panel: Prostate Cancer; type: cell-based
# [7] = In-Vitro Testing SRB panel: Renal Cancer; type: cell-based
# [8] = system: panel of human cancer cells; experiment: In vitro screening, SRB, panel of 60 human cancer cell lines; type: cell-based
# [9] = system: RPMI-8226; experiment: In-Vitro Testing SRB panel: Leukemia; type: cell-based
# [10] = system: TK-10; experiment: In-Vitro Testing SRB panel: Renal Cancer; type: cell-based
# [11] = system: SK-MEL-5; experiment: In-Vitro Testing SRB panel: Melanoma; type: cell-based
# [12] = system: SU.86.86 pancreatic adenocarcinoma; experiment: Mouse xenograft tumor growth; type: in vivo, nude mice; settings: SU.86.86 pancreatic adenocarcinoma mouse xenograft
# [13] = system: KM12; experiment: In-Vitro Testing SRB panel: Colon Cancer; type: cell-based
# [14] = system: ACHN; experiment: In-Vitro Testing SRB panel: Renal Cancer; type: cell-based
# [15] = system: HS 578T; experiment: In-Vitro Testing SRB panel: Breast Cancer; type: cell-based; settings: HS 578T
# [16] = Preliminary toxicology, subcutaneous injection for 14 days; type: in vivo, CD-1 female mice; settings: CD-1 female mice; 80 mg/kg/day s.c. 14 days
# Protocol: The toxicological effects of CLT, and compounds 28, 30 and 31 were tested in CD-1 female mice. A dose of 80 mg/kg/day was given to each mouse via subcutaneous injection for a period of 14 days. Preliminary toxicological data was determined by measuring body weight, gross pathology of organs blood chemistry and histology. The vehicle used was DMF 12%+2% Tween 20 88%.
# [17] = system: ROP-62; type: cell-based
# [18] = system: MDA-N; experiment: In-Vitro Testing SRB panel: Breast Cancer; type: cell-based
# [19] = Homo sapiens, read-out: LC50 (the source's name)
smiles,measurement,setting,value
COc1ccc2c(c1)CN(C(=O)c1ccc([N+](=O)[O-])cc1)c1ccc(Cl)cc1C2c1ccccc1Cl (stereo not shown) [Compound 30],GI50,"[1]; Homo sapiens, M14",45 nM
same,CC50,"[1]; Homo sapiens, M14, read-out: LC50 (the source's name)",> 100 µM
same,TGI,[1]; M14,>1.00E−04 Molar
same,Percent Growth,"[1]; M14, Log10 concentration −4.0 Molar",30%
same,Percent Growth,"[1]; M14, Log10 concentration −5.0 Molar",37%
same,Percent Growth,"[1]; M14, Log10 concentration −6.0 Molar",75%
same,Percent Growth,"[1]; M14, Log10 concentration −7.0 Molar",93%
same,Percent Growth,"[1]; M14, Log10 concentration −8.0 Molar",99%
same,GI50,"[2]; Homo sapiens, UACC-257",1860 nM
same,CC50,"[2]; Homo sapiens, UACC-257, read-out: LC50 (the source's name)",> 100 µM
same,TGI,[2]; UACC-257,>1.00E−04 Molar
same,Percent Growth,"[2]; UACC-257, Log10 concentration −4.0 Molar",13%
same,Percent Growth,"[2]; UACC-257, Log10 concentration −5.0 Molar",20%
same,Percent Growth,"[2]; UACC-257, Log10 concentration −6.0 Molar",61%
same,Percent Growth,"[2]; UACC-257, Log10 concentration −7.0 Molar",91%
same,Percent Growth,"[2]; UACC-257, Log10 concentration −8.0 Molar",99%
same,GI50,"[3]; Homo sapiens, SF-268",3.08 µM
same,CC50,"[3]; Homo sapiens, SF-268, read-out: LC50 (the source's name)",> 100 µM
same,TGI,[3]; SF-268,>1.00E−04 Molar
same,Percent Growth,"[3]; SF-268, Log10 concentration −4.0 Molar",21%
same,Percent Growth,"[3]; SF-268, Log10 concentration −5.0 Molar",30%
same,Percent Growth,"[3]; SF-268, Log10 concentration −6.0 Molar",69%
same,Percent Growth,"[3]; SF-268, Log10 concentration −7.0 Molar",115%
same,Percent Growth,"[3]; SF-268, Log10 concentration −8.0 Molar",104%
same,GI50,"[4]; Homo sapiens, SK-MEL-28",> 100 µM
same,CC50,"[4]; Homo sapiens, SK-MEL-28, read-out: LC50 (the source's name)",> 100 µM
same,TGI,[4]; SK-MEL-28,>1.00E−04 Molar
same,Percent Growth,"[4]; SK-MEL-28, Log10 concentration −4.0 Molar",65%
same,Percent Growth,"[4]; SK-MEL-28, Log10 concentration −5.0 Molar",70%
same,Percent Growth,"[4]; SK-MEL-28, Log10 concentration −6.0 Molar",86%
same,Percent Growth,"[4]; SK-MEL-28, Log10 concentration −7.0 Molar",100%
same,Percent Growth,"[4]; SK-MEL-28, Log10 concentration −8.0 Molar",101%
same,TGI,[5]; A498,>1.00E−04 Molar
same,Percent Growth,"[5]; A498, Log10 concentration −4.0 Molar",54%
same,Percent Growth,"[5]; A498, Log10 concentration −5.0 Molar",64%
same,Percent Growth,"[5]; A498, Log10 concentration −6.0 Molar",87%
same,Percent Growth,"[5]; A498, Log10 concentration −7.0 Molar",102%
same,Percent Growth,"[5]; A498, Log10 concentration −8.0 Molar",95%
same,GI50,"[5]; Homo sapiens, A498",> 100 µM
same,CC50,"[5]; Homo sapiens, A498, read-out: LC50 (the source's name)",> 100 µM
same,TGI,[6]; DU-145,>1.00E−04 Molar
same,Percent Growth,"[6]; DU-145, Log10 concentration −4.0 Molar",31%
same,Percent Growth,"[6]; DU-145, Log10 concentration −5.0 Molar",38%
same,Percent Growth,"[6]; DU-145, Log10 concentration −6.0 Molar",95%
same,Percent Growth,"[6]; DU-145, Log10 concentration −7.0 Molar",98%
same,Percent Growth,"[6]; DU-145, Log10 concentration −8.0 Molar",98%
same,GI50,"[6]; Homo sapiens, DU-145",6.24 µM
same,CC50,"[6]; Homo sapiens, DU-145, read-out: LC50 (the source's name)",> 100 µM
same,GI50,[7]; Homo sapiens,7.81 µM
same,CC50,"[7]; Homo sapiens, OO-31, read-out: LC50 (the source's name)",> 100 µM
same,TGI,[7]; OO-31,>1.00E−04 Molar
same,Percent Growth,"[7]; OO-31, Log10 concentration −4.0 Molar",43%
same,Percent Growth,"[7]; OO-31, Log10 concentration −5.0 Molar",43%
same,Percent Growth,"[7]; OO-31, Log10 concentration −6.0 Molar",107%
same,Percent Growth,"[7]; OO-31, Log10 concentration −7.0 Molar",94%
same,Percent Growth,"[7]; OO-31, Log10 concentration −8.0 Molar",98%
same,activity against the human cell panel,[8],exhibited activity against the human cell panel
same,GI50,"[9]; Homo sapiens, RPMI-8226",953 nM
same,CC50,"[9]; Homo sapiens, RPMI-8226, read-out: LC50 (the source's name)",> 100 µM
same,TGI,[9]; RPMI-8226,>1.00E−04 Molar
same,Percent Growth,"[9]; RPMI-8226, Log10 concentration −4.0 Molar",36%
same,Percent Growth,"[9]; RPMI-8226, Log10 concentration −5.0 Molar",30%
same,Percent Growth,"[9]; RPMI-8226, Log10 concentration −6.0 Molar",49%
same,Percent Growth,"[9]; RPMI-8226, Log10 concentration −7.0 Molar",100%
same,Percent Growth,"[9]; RPMI-8226, Log10 concentration −8.0 Molar",86%
same,GI50,"[10]; Homo sapiens, TK-10",27 µM
same,CC50,"[10]; Homo sapiens, TK-10, read-out: LC50 (the source's name)",> 100 µM
same,TGI,[10]; TK-10,>1.00E−04 Molar
same,Percent Growth,"[10]; TK-10, Log10 concentration −4.0 Molar",41%
same,Percent Growth,"[10]; TK-10, Log10 concentration −5.0 Molar",57%
same,Percent Growth,"[10]; TK-10, Log10 concentration −6.0 Molar",93%
same,Percent Growth,"[10]; TK-10, Log10 concentration −7.0 Molar",101%
same,Percent Growth,"[10]; TK-10, Log10 concentration −8.0 Molar",100%
same,GI50,"[11]; Homo sapiens, SK-MEL-5",3.95 µM
same,CC50,"[11]; Homo sapiens, SK-MEL-5, read-out: LC50 (the source's name)",> 100 µM
same,TGI,[11]; SK-MEL-5,>1.00E−04 Molar
same,Percent Growth,"[11]; SK-MEL-5, Log10 concentration −4.0 Molar",12%
same,Percent Growth,"[11]; SK-MEL-5, Log10 concentration −5.0 Molar",26%
same,Percent Growth,"[11]; SK-MEL-5, Log10 concentration −6.0 Molar",85%
same,Percent Growth,"[11]; SK-MEL-5, Log10 concentration −7.0 Molar",90%
same,Percent Growth,"[11]; SK-MEL-5, Log10 concentration −8.0 Molar",93%
same,tumor growth,[12],showed inhibition of tumor growth
same,GI50,"[13]; Homo sapiens, KM12",3.06 µM
same,CC50,"[13]; Homo sapiens, KM12, RM12, read-out: LC50 (the source's name)",> 100 µM
same,TGI,[13]; RM12,>1.00E−04 Molar
same,Percent Growth,"[13]; RM12, Log10 concentration −4.0 Molar",36%
same,Percent Growth,"[13]; RM12, Log10 concentration −5.0 Molar",41%
same,Percent Growth,"[13]; RM12, Log10 concentration −6.0 Molar",59%
same,Percent Growth,"[13]; RM12, Log10 concentration −7.0 Molar",91%
same,Percent Growth,"[13]; RM12, Log10 concentration −8.0 Molar",95%
same,TGI,[14],>1.00E−04 Molar
same,CC50,[14]; [19],> 100 µM
same,Percent Growth,[14]; Log10 concentration −4.0 Molar,53%
same,Percent Growth,[14]; Log10 concentration −5.0 Molar,50%
same,Percent Growth,[14]; Log10 concentration −6.0 Molar,94%
same,Percent Growth,[14]; Log10 concentration −7.0 Molar,108%
same,Percent Growth,[14]; Log10 concentration −8.0 Molar,107%
same,TGI,[15],>1.00E−04 Molar
same,Percent Growth,[15]; Log10 concentration −4.0 Molar,11%
same,Percent Growth,[15]; Log10 concentration −5.0 Molar,51%
same,Percent Growth,[15]; Log10 concentration −6.0 Molar,30%
same,Percent Growth,[15]; Log10 concentration −7.0 Molar,91%
same,Percent Growth,[15]; Log10 concentration −8.0 Molar,87%
same,CC50,[15]; [19],> 100 µM
same,Body Weight Change,[16],108%
same,Liver Weight,[16],1.52 ± 0.23 g
same,RBC,[16],8.2 ± 0.2 10^6/mm^3
same,WBC,[16],6.4 ± 1.7 10^3/mm^3
same,"WBC, RBC, BUN and creatine levels",[16],no differences were found
same,GI50,[17]; Homo sapiens,> 100 µM
same,CC50,"[17]; Homo sapiens, ROP-62, read-out: LC50 (the source's name)",> 100 µM
same,TGI,[17]; ROP-62,>1.00E−04 Molar
same,Percent Growth,"[17]; ROP-62, Log10 concentration −4.0 Molar",50%
same,Percent Growth,"[17]; ROP-62, Log10 concentration −5.0 Molar",67%
same,Percent Growth,"[17]; ROP-62, Log10 concentration −6.0 Molar",95%
same,Percent Growth,"[17]; ROP-62, Log10 concentration −7.0 Molar",102%
same,Percent Growth,"[17]; ROP-62, Log10 concentration −8.0 Molar",96%
same,TGI,[18],>1.00E−04 Molar
same,CC50,[18]; [19],> 100 µM
same,Percent Growth,[18]; Log10 concentration −4.0 Molar,51%
same,Percent Growth,[18]; Log10 concentration −5.0 Molar,39%
same,Percent Growth,[18]; Log10 concentration −6.0 Molar,83%
same,Percent Growth,[18]; Log10 concentration −7.0 Molar,93%
same,Percent Growth,[18]; Log10 concentration −8.0 Molar,101%
